Measurements as given in patent US20230085307A1, “PYRIDAZINONE COMPOUND AND HERBICIDE” (NISSAN CHEMICAL CORPORATION, priority 2019, published 2023).

How the values were obtained:
velvetleaf [1] = experiment: Test Example 4: herbicidal effect by soil treatment (Table 19, symbol M); type: in vivo, velvetleaf (Abutilon theophrasti); details: amount of applied herbicide 320 g/ha
How it was run: (§1)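 Emulsion of test compound, water-diluted to predetermined amount, sprayed on soil after sowing (seed depth ~1.5 cm, sterilized diluvial soil). Greenhouse, 25–30° C. Effect graded at three weeks post-spray.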

southern crabgrass [2] = experiment: Test Example 5: herbicidal effect by foliage application, plastic box (Table 20, symbol F); type: in vivo, southern crabgrass (Digitaria ciliaris); details: amount of applied herbicide 320 g/ha; foliage application after 14-day growth; evaluated three weeks after application
How it was run: (§2)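 Post-emergence foliar test in sterilized diluvial soil. Compound applied as water-diluted emulsion at a predetermined rate to 14-day-old plants; evaluation at three weeks.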

persian speedwell [3] = experiment: Test Example 4: herbicidal effect by soil treatment (Table 19, symbol R); type: in vivo, Persian speedwell (Veronica persica); details: amount of applied herbicide 320 g/ha
How it was run: as §1

chickweed [4] = experiment: Test Example 5: herbicidal effect by foliage application, plastic box (Table 20, symbol P); type: in vivo, common chickweed (Stellaria media); details: amount of applied herbicide 320 g/ha; foliage application after 14-day growth; evaluated three weeks after application
How it was run: as §2

barnyard grass [5] = experiment: Test Example 5: herbicidal effect by foliage application, plastic box (Table 20, symbol H); type: in vivo, barnyard grass (Echinochloa crus-galli); details: amount of applied herbicide 320 g/ha; foliage application after 14-day growth; evaluated three weeks after application
How it was run: as §2

wild oat [6] = experiment: Test Example 4: herbicidal effect by soil treatment (Table 19, symbol I); type: in vivo, wild oat (Avena fatua); details: amount of applied herbicide 320 g/ha
How it was run: as §1

windgrass [7] = experiment: Test Example 4: herbicidal effect by soil treatment (Table 19, symbol L); type: in vivo, windgrass (Apera spica-venti); details: amount of applied herbicide 320 g/ha
How it was run: as §1

green foxtail [8] = experiment: Test Example 5: herbicidal effect by foliage application, plastic box (Table 20, symbol G); type: in vivo, green foxtail (Setaria viridis); details: amount of applied herbicide 320 g/ha; foliage application after 14-day growth; evaluated three weeks after application
How it was run: as §2

velvetleaf [9] = experiment: Test Example 5: herbicidal effect by foliage application, plastic box (Table 20, symbol M); type: in vivo, velvetleaf (Abutilon theophrasti); details: amount of applied herbicide 320 g/ha; foliage application after 14-day growth; evaluated three weeks after application
How it was run: as §2

windgrass [10] = experiment: Test Example 5: herbicidal effect by foliage application, plastic box (Table 20, symbol L); type: in vivo, windgrass (Apera spica-venti); details: amount of applied herbicide 320 g/ha; foliage application after 14-day growth; evaluated three weeks after application
How it was run: as §2

lambsquarters [11] = experiment: Test Example 5: herbicidal effect by foliage application, plastic box (Table 20, symbol O); type: in vivo, lambsquarters (Chenopodium album); details: amount of applied herbicide 320 g/ha; foliage application after 14-day growth; evaluated three weeks after application
How it was run: as §2

Italian ryegrass [12] = experiment: Test Example 4: herbicidal effect by soil treatment (Table 19, symbol K); type: in vivo, Italian ryegrass (Lolium multiflorum); details: amount of applied herbicide 320 g/ha
How it was run: as §1

blackgrass [13] = experiment: Test Example 4: herbicidal effect by soil treatment (Table 19, symbol J); type: in vivo, blackgrass (Alopecurus myosuroides); details: amount of applied herbicide 320 g/ha
How it was run: as §1

barnyard grass [14] = experiment: Test Example 3: herbicidal effect by foliage application, Wagner pot (Table 18, symbol H); type: in vivo, barnyard grass (Echinochloa crus-galli); details: 320 g/ha
How it was run: (§3)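 Plants were sown in alluvial soil held under 0.1–0.5 cm standing water and grown 14 days in a greenhouse at 25–30 °C. An emulsifiable formulation, water-diluted to the set dose, was then sprayed onto the foliage, and effects were scored three weeks later using previously defined criteria.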

persian speedwell [15] = experiment: Test Example 5: herbicidal effect by foliage application, plastic box (Table 20, symbol R); type: in vivo, Persian speedwell (Veronica persica); details: amount of applied herbicide 320 g/ha; foliage application after 14-day growth; evaluated three weeks after application
How it was run: as §2

redroot pigweed [16] = experiment: Test Example 4: herbicidal effect by soil treatment (Table 19, symbol N); type: in vivo, redroot pigweed (Amaranthus retroflexus); details: amount of applied herbicide 320 g/ha
How it was run: as §1

Japanese bulrush = experiment: Test Example 1: herbicidal activity, application before weed generation under submerged conditions (Table 16, symbol B); type: in vivo, Japanese bulrush (Schoenoplectus juncoides); details: amount of applied herbicide 320 g/ha
How it was run: (§4)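 Submerged Wagner pots (alluvial soil, 4 cm water) sown with weed seeds and planted with 2.5-leaf rice seedlings; emulsifiable concentrate diluted in water applied to water surface on sowing day. Held in greenhouse at 25-30 °C; injury scored 0-5 by herbicidal rate after three weeks.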

lambsquarters [17] = experiment: Test Example 4: herbicidal effect by soil treatment (Table 19, symbol O); type: in vivo, lambsquarters (Chenopodium album); details: amount of applied herbicide 320 g/ha
How it was run: as §1

blackgrass [18] = experiment: Test Example 5: herbicidal effect by foliage application, plastic box (Table 20, symbol J); type: in vivo, blackgrass (Alopecurus myosuroides); details: amount of applied herbicide 320 g/ha; foliage application after 14-day growth; evaluated three weeks after application
How it was run: as §2

wild oat [19] = experiment: Test Example 5: herbicidal effect by foliage application, plastic box (Table 20, symbol I); type: in vivo, wild oat (Avena fatua); details: amount of applied herbicide 320 g/ha; foliage application after 14-day growth; evaluated three weeks after application
How it was run: as §2

barnyard grass [20] = experiment: Test Example 4: herbicidal effect by soil treatment (Table 19, symbol H); type: in vivo, barnyard grass (Echinochloa crus-galli); details: amount of applied herbicide 320 g/ha
How it was run: as §1

rice flat sedge = experiment: Test Example 3: herbicidal effect by foliage application, Wagner pot (Table 18, symbol E); type: in vivo, rice flat sedge (Cyperus iria); details: 320 g/ha
How it was run: as §3

late watergrass = experiment: Test Example 1: herbicidal activity, application before weed generation under submerged conditions (Table 16, symbol A); type: in vivo, late watergrass (Echinochloa oryzicola); details: amount of applied herbicide 320 g/ha
How it was run: as §4

southern crabgrass [21] = experiment: Test Example 4: herbicidal effect by soil treatment (Table 19, symbol F); type: in vivo, southern crabgrass (Digitaria ciliaris); details: amount of applied herbicide 320 g/ha
How it was run: as §1

Italian ryegrass [22] = experiment: Test Example 5: herbicidal effect by foliage application, plastic box (Table 20, symbol K); type: in vivo, Italian ryegrass (Lolium multiflorum); details: amount of applied herbicide 320 g/ha; foliage application after 14-day growth; evaluated three weeks after application
How it was run: as §2

Chinese sprangletop = experiment: Test Example 3: herbicidal effect by foliage application, Wagner pot (Table 18, symbol D); type: in vivo, chinese sprangletop (Leptochloa chinensis); details: 320 g/ha
How it was run: as §3

oval-leafed pondweed = experiment: Test Example 1: herbicidal activity, application before weed generation under submerged conditions (Table 16, symbol C); type: in vivo, oval-leafed pondweed (Monochoria vaginalis); details: amount of applied herbicide 320 g/ha
How it was run: as §4

chickweed [23] = experiment: Test Example 4: herbicidal effect by soil treatment (Table 19, symbol P); type: in vivo, common chickweed (Stellaria media); details: amount of applied herbicide 320 g/ha
How it was run: as §1

redroot pigweed [24] = experiment: Test Example 5: herbicidal effect by foliage application, plastic box (Table 20, symbol N); type: in vivo, redroot pigweed (Amaranthus retroflexus); details: amount of applied herbicide 320 g/ha; foliage application after 14-day growth; evaluated three weeks after application
How it was run: as §2

green foxtail [25] = experiment: Test Example 4: herbicidal effect by soil treatment (Table 19, symbol G); type: in vivo, green foxtail (Setaria viridis); details: amount of applied herbicide 320 g/ha
How it was run: as §1

Compound | M: velvetleaf, herbicidal effect grade (velvetleaf [1]) | Herbicidal effect by foliage application, F: southern crabgrass (southern crabgrass [2]) | R: persian speedwell, herbicidal effect grade (persian speedwell [3]) | Herbicidal effect by foliage application, P: chickweed (chickweed [4]) | Herbicidal effect by foliage application, H: barnyard grass (barnyard grass [5]) | I: wild oat, herbicidal effect grade (wild oat [6]) | L: windgrass, herbicidal effect grade (windgrass [7]) | Herbicidal effect by foliage application, G: green foxtail (green foxtail [8]) | Herbicidal effect by foliage application, M: velvetleaf (velvetleaf [9]) | Herbicidal effect by foliage application, L: windgrass (windgrass [10]) | Herbicidal effect by foliage application, O: lambsquarters (lambsquarters [11]) | K: Italian ryegrass, herbicidal effect grade (Italian ryegrass [12]) | J: blackgrass, herbicidal effect grade (blackgrass [13]) | herbicidal effect on barnyard grass (H) (barnyard grass [14]) | Herbicidal effect by foliage application, R: persian speedwell (persian speedwell [15]) | N: redroot pigweed, herbicidal effect grade (redroot pigweed [16]) | Herbicidal effect, B: Japanese bulrush (Japanese bulrush) | O: lambsquarters, herbicidal effect grade (lambsquarters [17]) | Herbicidal effect by foliage application, J: blackgrass (blackgrass [18]) | Herbicidal effect by foliage application, I: wild oat (wild oat [19]) | also measured
CCCC(=O)Oc1c(C)nn(C)c(=O)c1-c1c(-c2ccc(OC)cc2)sc2cc(F)c(F)cc12 [5-015] | 0 (Herbicidal rate of 5% or less (almost no effect)) | 0 (Herbicidal rate of 5% or less (almost no effect)) | 5 (Herbicidal rate of 90% or more (almost completely withered)) | 5 (Herbicidal rate of 90% or more (almost completely withered)) | 0 (Herbicidal rate of 5% or less (almost no effect)) | 0 (Herbicidal rate of 5% or less (almost no effect)) | 0 (Herbicidal rate of 5% or less (almost no effect)) | 0 (Herbicidal rate of 5% or less (almost no effect)) | 4 (Herbicidal rate of 70% or more and less than 90%) | 0 (Herbicidal rate of 5% or less (almost no effect)) | 5 (Herbicidal rate of 90% or more (almost completely withered)) | 0 (Herbicidal rate of 5% or less (almost no effect)) | 0 (Herbicidal rate of 5% or less (almost no effect)) | 2 (Herbicidal rate of 20% or more and less than 40%) | 5 (Herbicidal rate of 90% or more (almost completely withered)) | 4 (Herbicidal rate of 70% or more and less than 90%) | 0 (Herbicidal rate of 5% or less (almost no effect)) | 4 (Herbicidal rate of 70% or more and less than 90%) | 0 (Herbicidal rate of 5% or less (almost no effect)) | 0 (Herbicidal rate of 5% or less (almost no effect)) | H: barnyard grass, herbicidal effect grade (barnyard grass [20]): 0 (Herbicidal rate of 5% or less (almost no effect)); herbicidal effect on rice flat sedge (E) (rice flat sedge): 3 (Herbicidal rate of 40% or more and less than 70%); Herbicidal effect, A: late watergrass (late watergrass): 3 (Herbicidal rate of 40% or more and less than 70%); F: southern crabgrass, herbicidal effect grade (southern crabgrass [21]): 0 (Herbicidal rate of 5% or less (almost no effect)); Herbicidal effect by foliage application, K: Italian ryegrass (Italian ryegrass [22]): 0 (Herbicidal rate of 5% or less (almost no effect)); herbicidal effect on Chinese sprangletop (D) (Chinese sprangletop): 2 (Herbicidal rate of 20% or more and less than 40%); Herbicidal effect, C: oval-leafed pondweed (oval-leafed pondweed): 0 (Herbicidal rate of 5% or less (almost no effect)); P: chickweed, herbicidal effect grade (chickweed [23]): 3 (Herbicidal rate of 40% or more and less than 70%); Herbicidal effect by foliage application, N: redroot pigweed (redroot pigweed [24]): 5 (Herbicidal rate of 90% or more (almost completely withered)); G: green foxtail, herbicidal effect grade (green foxtail [25]): 0 (Herbicidal rate of 5% or less (almost no effect))
Cc1nn(C)c(=O)c(-c2c(-c3ccc(OC(C)C)cc3)sc3cc(F)c(F)cc23)c1O [5-019] | 3 (Herbicidal rate of 40% or more and less than 70%) | 4 (Herbicidal rate of 70% or more and less than 90%) | 4 (Herbicidal rate of 70% or more and less than 90%) | 5 (Herbicidal rate of 90% or more (almost completely withered)) | 4 (Herbicidal rate of 70% or more and less than 90%) | 0 (Herbicidal rate of 5% or less (almost no effect)) | 0 (Herbicidal rate of 5% or less (almost no effect)) | 4 (Herbicidal rate of 70% or more and less than 90%) | 4 (Herbicidal rate of 70% or more and less than 90%) | 0 (Herbicidal rate of 5% or less (almost no effect)) | 3 (Herbicidal rate of 40% or more and less than 70%) | 0 (Herbicidal rate of 5% or less (almost no effect)) | 0 (Herbicidal rate of 5% or less (almost no effect)) | 4 (Herbicidal rate of 70% or more and less than 90%) | 5 (Herbicidal rate of 90% or more (almost completely withered)) | 4 (Herbicidal rate of 70% or more and less than 90%) | 0 (Herbicidal rate of 5% or less (almost no effect)) | 2 (Herbicidal rate of 20% or more and less than 40%) | 0 (Herbicidal rate of 5% or less (almost no effect)) | 0 (Herbicidal rate of 5% or less (almost no effect)) | H: barnyard grass, herbicidal effect grade (barnyard grass [20]): 0 (Herbicidal rate of 5% or less (almost no effect)); herbicidal effect on rice flat sedge (E) (rice flat sedge): 1 (Herbicidal rate of 5% or more and less than 20%); Herbicidal effect, A: late watergrass (late watergrass): 3 (Herbicidal rate of 40% or more and less than 70%); F: southern crabgrass, herbicidal effect grade (southern crabgrass [21]): 0 (Herbicidal rate of 5% or less (almost no effect)); Herbicidal effect by foliage application, K: Italian ryegrass (Italian ryegrass [22]): 3 (Herbicidal rate of 40% or more and less than 70%); herbicidal effect on Chinese sprangletop (D) (Chinese sprangletop): 0 (Herbicidal rate of 5% or less (almost no effect)); Herbicidal effect, C: oval-leafed pondweed (oval-leafed pondweed): 0 (Herbicidal rate of 5% or less (almost no effect)); P: chickweed, herbicidal effect grade (chickweed [23]): 1 (Herbicidal rate of 5% or more and less than 20%); Herbicidal effect by foliage application, N: redroot pigweed (redroot pigweed [24]): 5 (Herbicidal rate of 90% or more (almost completely withered)); G: green foxtail, herbicidal effect grade (green foxtail [25]): 3 (Herbicidal rate of 40% or more and less than 70%)
